Results reported in PubChem BioAssay (NCI).
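Following 48 hours of exposure in 96-well plates, responses at five concentrations were used to interpolate endpoints linearly. Here, GI50 denotes the concentration required for 50% inhibition of growth. TGI denotes the concentration required for complete inhibition of growth.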

Tests used:
Assay in all cases: growth of human tumour cells (NCI), 48 h
[1] = system: 786-0 renal
[2] = system: DMS 114 small cell lung
[3] = system: EKVX NSCLC
[4] = system: IGROV1 ovarian
[5] = system: KM20L2 colon
[6] = system: LXFL 529 NSCLC
[7] = system: M14 melanoma
[8] = system: MOLT-4 leukemia
[9] = system: SF-295 CNS
[10] = system: SR leukemia
[11] = system: BT-549 breast
[12] = system: MCF7 breast
[13] = system: NCI/ADR-RES ovarian

Row | Compound | TGI [1] | TGI [2] | TGI [3] | TGI [4] | TGI [5] | TGI [6] | TGI [7] | TGI [8] | TGI [9] | TGI [10] | TGI [11] | TGI [12] | TGI [13] | GI50 [5] | GI50 [6]
1 | CC(=O)OCCOCNC(=S)N/N=C/c1ccc([N+](=O)[O-])s1 | > 100 µM | 26.4 µM | > 100 µM | > 100 µM | > 100 µM | > 100 µM | > 100 µM | > 100 µM | > 100 µM | > 100 µM | – | – | – | – | –
2 | CC(=O)O[C@]12CCCCCC1C1(O)C(O)CCCCC12 (some centres undefined) | > 100 µM | > 100 µM | > 100 µM | – | > 100 µM | > 100 µM | > 100 µM | > 100 µM | > 100 µM | > 100 µM | – | – | – | – | –
3 | Nc1c(S(=O)(=O)c2ccccc2)c2nc3ccccc3nc2n2c1nc1ccccc12 | > 50.5 µM | > 100 µM | > 100 µM | 98.9 µM | > 100 µM | > 100 µM | > 31.6 µM | > 100 µM | > 53.4 µM | > 100 µM | – | – | – | – | –
4 | COCCn1cnc2c(Cl)nc(Nc3ccccc3)nc21 | > 100 µM | – | 51.9 µM | 50.9 µM | – | – | 60.8 µM | 60.5 µM | > 100 µM | > 100 µM | 99 µM | > 100 µM | > 100 µM | – | –
5 | NCCCNCCCCN1CCOC1=O | > 100 µM | – | > 100 µM | > 100 µM | – | – | > 100 µM | > 100 µM | > 100 µM | > 100 µM | > 100 µM | > 100 µM | > 100 µM | – | –
6 | COc1cccc(CC(=O)N2CCN(CCCc3ccccc3)CC2)c1 | > 100 µM | – | > 100 µM | > 100 µM | – | – | > 100 µM | > 100 µM | > 100 µM | > 100 µM | > 100 µM | > 100 µM | 94.3 µM | – | –
7 | CN1CC=C(c2c(N)nc(N)[nH]c2=O)CC1 | > 100 µM | – | > 100 µM | > 100 µM | – | – | > 100 µM | > 100 µM | > 100 µM | > 100 µM | > 100 µM | > 100 µM | > 100 µM | – | –
8 | Cc1ccc(C(=O)NCc2ccccc2)cc1N=NN(C)C | > 100 µM | – | > 100 µM | > 100 µM | > 100 µM | > 100 µM | > 100 µM | > 100 µM | > 100 µM | > 100 µM | > 100 µM | > 100 µM | > 100 µM | – | –
9 | CCCCCCc1cc2cc(C(=O)Nc3ccc(F)cc3)c(=N)oc2cc1O | 77.6 µM | – | 21.2 µM | 4.47 µM | – | – | 13.2 µM | 5.59 µM | > 100 µM | 8.23 µM | 7.32 µM | 33.7 µM | 8.94 µM | – | –
10 | Oc1c(Br)ccc2cccnc12 | > 43.2 µM | – | > 66.3 µM | 15.6 µM | – | – | > 32.5 µM | > 26.9 µM | 14.9 µM | > 27.7 µM | > 92.2 µM | 2.73 µM | 6.38 µM | – | –
11 | C=CC1(CC[C@]2(c3ccc(OC)c(OC)c3)C=[N+]([O-])O[C@H](O[C@@H]3CCCC[C@H]3C(C)(C)c3ccccc3)C2)OCC(C)(C)CO1 | > 45.8 µM | – | 45.5 µM | 23.7 µM | – | – | > 58.1 µM | 21.6 µM | > 51.2 µM | > 38.9 µM | 98.6 µM | > 42.4 µM | 31 µM | – | –
12 | CC(=O)SC(C[N+](=O)[O-])c1ccc2c(c1)OCO2 (centres undefined) | 8.95 µM | – | 52.5 µM | 19.8 µM | – | – | 15.6 µM | 19.9 µM | 26.1 µM | 7.27 µM | 14.2 µM | 6.93 µM | 35.5 µM | – | –
13 | CC(=O)c1c(N=[N+]=[N-])c2cccc3c2n(c1=O)CCC3 | 33.5 µM | – | 54.1 µM | 42.8 µM | – | – | 36.3 µM | 62.6 µM | 60 µM | > 100 µM | 39.8 µM | 62.5 µM | 38.2 µM | – | –
14 | Cc1ccc(S(=O)(=O)C2=C(C(C)C)N=NC2(C)C)cc1 | > 100 µM | – | > 100 µM | > 100 µM | – | – | > 100 µM | > 100 µM | > 100 µM | > 100 µM | > 100 µM | > 100 µM | > 100 µM | – | –
15 | COc1ccc2nc(-c3ccccc3)c(=O)[nH]c2c1 | > 100 µM | – | > 100 µM | > 100 µM | – | – | > 100 µM | > 100 µM | > 100 µM | > 100 µM | > 100 µM | > 100 µM | > 100 µM | – | –
16 | O=[N+]([O-])c1c(F)c(F)c2c(c1F)N(CCCCCl)c1ccccc1S2 | 23.8 µM | – | 41.3 µM | 5.36 µM | – | – | 18.2 µM | > 21.6 µM | 31.1 µM | > 100 µM | 28 µM | 11.9 µM | 37.5 µM | – | –

Row | Compound | TGI [1] | TGI [2] | TGI [3] | TGI [4] | TGI [5] | TGI [6] | TGI [7] | TGI [8] | TGI [9] | TGI [10] | TGI [11] | TGI [12] | TGI [13] | GI50 [5] | GI50 [6]
17 | O=c1[nH]nc(Cc2ccc(Cl)cc2)n1/N=C/c1cccs1 | > 100 µM | – | > 100 µM | 79.5 µM | – | – | > 100 µM | > 100 µM | 44 µM | > 100 µM | 66.5 µM | > 100 µM | > 100 µM | – | –
18 | S=C1NCCN1C(=S)Nc1ccccc1 | > 100 µM | – | > 100 µM | > 100 µM | – | – | > 100 µM | > 100 µM | > 100 µM | > 100 µM | > 100 µM | > 100 µM | > 100 µM | – | –
19 | CC(NC(=O)Cc1ccccc1)NC(=O)C(C)C(=O)NCc1ccccc1 (centres undefined) | > 100 µM | – | > 100 µM | > 100 µM | – | – | > 100 µM | > 100 µM | > 100 µM | > 100 µM | 75 µM | > 100 µM | > 100 µM | – | –
20 | N/C(=N\S(=O)(=O)c1ccc(-c2ncccc2C(F)(F)F)s1)Nc1ccc(Cl)cc1 | 34.7 µM | – | 19 µM | 27.8 µM | – | – | 31.2 µM | 53.7 µM | 31.6 µM | 46.4 µM | 29 µM | 30 µM | 41.1 µM | – | –
21 | Cc1ccc(NC(=O)C(=O)C2C(=O)NC(=O)NC2=O)cc1C | > 100 µM | – | > 100 µM | > 100 µM | > 100 µM | > 100 µM | > 100 µM | > 100 µM | > 100 µM | > 100 µM | – | – | – | – | –
22 | CN1CCN(/C(N)=C(\C#N)C(=O)Nc2ccc(Cl)cc2)CC1 | > 100 µM | – | > 100 µM | > 100 µM | – | – | > 100 µM | > 100 µM | > 100 µM | 95.3 µM | > 100 µM | > 100 µM | > 100 µM | – | –
23 | O=C1/C(=C\c2cccc(Oc3ccccc3)c2)S(=O)(=O)C(c2ccccc2)N1c1cccc(Cl)c1 (centres undefined) | > 100 µM | – | > 100 µM | > 100 µM | – | – | > 100 µM | > 100 µM | > 100 µM | > 100 µM | > 100 µM | > 100 µM | > 100 µM | – | –
24 | c1ccc2c3[nH]c(c2c1)=Nc1ccc(cc1)-c1nc2ccc(cc2o1)N=c1[nH]c(c2ccccc12)=Nc1ccc2nc(oc2c1)-c1ccc(cc1)N=3 | > 100 µM | – | > 100 µM | > 100 µM | – | – | > 100 µM | > 100 µM | > 100 µM | 71.6 µM | > 100 µM | > 100 µM | > 100 µM | – | –
25 | NCCCN(CCCN)CCc1cn(C(=O)c2ccccc2)cn1 | 25.6 µM | – | 23.3 µM | 17.4 µM | – | – | 18.1 µM | 17.9 µM | 30.7 µM | 13.9 µM | 35.1 µM | 11.4 µM | 53.9 µM | – | –
26 | COc1cccc(-c2nc(-c3cnccn3)n(C/C=C/c3ccccc3)n2)c1 | > 10 µM | – | > 10 µM | > 10 µM | – | – | > 10 µM | > 10 µM | > 10 µM | > 10 µM | > 10 µM | > 10 µM | > 10 µM | – | –
27 | CN1CCCOC(c2ccc(Cl)cc2)O1 (centres undefined) | > 100 µM | – | > 100 µM | > 100 µM | – | – | > 100 µM | > 100 µM | > 100 µM | > 100 µM | > 100 µM | > 100 µM | > 100 µM | – | –
28 | CC(=O)O[C@@]12CO[C@@H]1CC(O)[C@@]1(C)C(=O)[C@H](O)C3=C(C)C(O)C[C@@](O)(C(OC(=O)c4ccccc4)C12)C3(C)C (some centres undefined) | > 100 µM | – | > 100 µM | > 100 µM | 3.31 µM | – | > 48.5 µM | > 31.6 µM | > 51.1 µM | > 100 µM | > 100 µM | > 100 µM | > 100 µM | – | –
29 | CCCC(=O)[O-].CCCC(=O)[O-].NCCN.NCCN.[Co+3].[O-][Cl+3]([O-])([O-])[O-] | > 100 µM | – | > 100 µM | > 100 µM | > 100 µM | > 100 µM | > 100 µM | > 100 µM | > 100 µM | – | – | – | – | > 100 µM | > 100 µM
30 | Cc1ccc(CSC(N)=Nc2ccccc2)cc1C | 44.7 µM | – | 75.8 µM | 57.5 µM | – | – | 41.2 µM | 75.4 µM | > 100 µM | 55.8 µM | 50.8 µM | 37.9 µM | 52.8 µM | – | –
31 | CSc1ccc2c(cc1=O)[C@@H](NC(=O)c1cc(O)c(O)c(O)c1)CCc1cc(O)c(O)c(O)c1-2 | > 100 µM | – | 56.7 µM | – | > 100 µM | 37.8 µM | 36.6 µM | 45.6 µM | 43.6 µM | 50.9 µM | – | – | – | – | –
32 | COC(=O)C1=C(OC)[C@H]2C#C/C=C\C#C[C@@H]3Nc4c(cc(O)c5c4C(=O)c4ccccc4C5=O)[C@]24O[C@@]34[C@H]1C | < 0.01 µM | – | 0.0335 µM | 0.167 µM | – | – | < 0.01 µM | < 0.01 µM | < 0.01 µM | < 0.01 µM | < 0.0339 µM | 0.126 µM | < 0.01 µM | – | –
